Where two headings read alike, the source gives them in different places.
How the values were obtained:
Format in all cases: in vivo
[1] = test system: Mycosphaerella graminicola; Anamorph: Septoria tritici; assay: Leaf Blotch of Wheat (SEPTTR) disease control; details: Zymoseptoria tritici; for pest or weed control at 100 ppm: rate 100 ppm; for pest or weed control at 121.5 g/ha: rate 121.5 g/H
Outline: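 Yuma wheat, 1st leaf stage; spray to run-off, acetone + 9 vol water/110 ppm Triton X-100; S. tritici spores pre- or post-treatment; dew chamber 100% RH, then greenhouse 20° C. Read: % severity vs untreated → % control.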

Uncinula necator = assay: Grape Powdery Mildew (UNCINE) disease control; details: Erysiphe necator, topical, 24 h, 1 Day Protectant, read-out: Disease Control UNCINE 1 DP
Outline: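 Month-old Carignane grape seedlings were sprayed to run-off with compound in acetone diluted 1:9 in water containing 110 ppm Triton X-100, then inoculated 24 h later by shaking spores from infected leaves. Plants were held in a greenhouse at 20 °C until disease developed, and severity (0–100%) was scored with control calculated relative to untreated plants.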

[2] = test system: Puccinia triticina; Synonym: Puccinia recondite f. Sp. Tritici; assay: Wheat Brown Rust (PUCCRT) disease control; details: for pest or weed control at 100 ppm / pest or weed control at 121.5 g/ha: Puccinia triticina, topical; for pest or weed control at 100 ppm: rate 100 ppm
Outline: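 Brown rust on first-leaf Yuma wheat: spore inoculation before or after spray application (acetone/Triton X-100 solution, or EC with Trycol in track spray), overnight 100% RH at 22 °C, disease developed at 24 °C. Severity scored 0–100% and converted to percent control against untreated.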

Alternaria solani = assay: Tomato Early Blight (ALTESO) disease control; details: Alternaria solani, topical, 24 h, 1 Day Protectant, read-out: Disease Control ALTESO 1 DP
Procedure: Technical grades of materials were dissolved in acetone, which were then mixed with nine volumes of water containing 110 ppm Triton X-100. The fungicide solutions were applied onto wheat seedlings using an automated booth sprayer to run-off. All sprayed plants were allowed to air dry prior to further handling. All fungicides were evaluated using the aforementioned method for their activity vs. all target diseases. Wheat leaf blotch and brown rust activity were also evaluated using track spray applications, in which case the fungicides were formulated as EC formulations, containing 0.1% Trycol 5941 in the spray solutions. Wheat plants (variety Yuma) were grown from seed in a greenhouse in 50% mineral soil/50% soil-less Metro mix until the first leaf was fully emerged, with 7-10 seedlings per pot. These plants were inoculated with an aqueous spore suspension of Septoria tritici either prior to or after fungicide treatments. After inoculation the plants were kept in 100% relative humidity (one day in a dark dew chamber followed by two to three days in a lighted dew chamber at 20° C.) to permit spores to germinate and infect the leaf. The plants were then transferred to a greenhouse set at 20° C. for disease to develop. When disease symptoms were fully expressed on the 1st leaves of untreated plants, infection levels were assessed on a scale of 0 to 100 percent disease severity. Percent disease control was calculated using the ratio of disease severity on treated plants relative to untreated plants. Tomato plants (variety Outdoor girl) were propagated in soil-less Metro mix, with each pot having one plant, and used when 12 to 14 days old. Test plants were inoculated with an aqueous spore suspension of Alternaria solani 24 hr after fungicide treatments. After inoculation the plants were kept in 100% relative humidity (one day in a dark dew chamber followed by two to three days in a lighted dew chamber at 20° C.) to permit spores to germinate and infect the leaf. The plants were then transferred to a growth room at 22° C. for disease to develop. Fungicide formulation, application and disease assessment on the sprayed leaves followed the procedures as described in the Example A.

[3] = 24 h, 1 Day Protectant, read-out: SEPTTR 1 DP disease control
[4] = 72 h, 3 Day Curative, read-out: SEPTTR 3 DC disease control
[5] = 24 h, 1 Day Protectant, read-out: PUCCRT 1 DP disease control
[6] = 24 h, 1 Day Protectant, rate 121.5 g/H, read-out: PUCCRT 1 DP disease control
[7] = 72 h, 3 Day Curative, read-out: PUCCRT 3 DC disease control
[8] = 72 h, 3 Day Curative, rate 121.5 g/H, read-out: PUCCRT 3 DC disease control

| Compound | pest or weed control at 100 ppm [1, 3] | pest or weed control at 121.5 g/ha [1, 3] | pest or weed control at 100 ppm [1, 4] | pest or weed control at 121.5 g/ha [1, 4] | pest or weed control at 100 ppm (Uncinula necator) | pest or weed control at 100 ppm [2, 5] | pest or weed control at 121.5 g/ha [2, 6] | pest or weed control at 100 ppm [2, 7] | pest or weed control at 121.5 g/ha [2, 8] | pest or weed control at 100 ppm (Alternaria solani) | PUCCRT 3 DC disease control ([2]; 3 Day Curative, rate 121.5 g/H) |
| --- | --- | --- | --- | --- | --- | --- | --- | --- | --- | --- | --- |
| COc1ccnc(C(=O)N[C@H]2CCC[C@H](CC3CCCC3)[C@@H](OCC3CC3)[C@H](C)OC2=O)c1OCOC(C)=O [Compound F117] | 80 to 100% | 80 to 100% | 80 to 100% | 80 to 100% | 80 to 100% | 80 to 100% | 80 to 100% | 80 to 100% | 80 to 100% | 80 to 100% |  |
| COc1ccnc(C(=O)N[C@H]2CCC[C@H](Cc3ccc(F)cc3F)[C@@H](OC(=O)c3ccco3)[C@H](C)OC2=O)c1OCOC(C)=O [Compound F144] |  | 80 to 100% |  | 0 to 80% | 0 to 80% |  | 80 to 100% |  |  | 80 to 100% |  |
| COc1ccnc(C(=O)N[C@H]2CCC[C@H](Cc3ccccc3)[C@@H](OCC(C)C)[C@H](C)OC2=O)c1OC(C)=O [Compound F70] | 80 to 100% | 80 to 100% | 80 to 100% | 80 to 100% | 80 to 100% | 80 to 100% | 80 to 100% | 80 to 100% | 80 to 100% | 0 to 80% |  |
| COc1ccnc(C(=O)N[C@H]2CCC[C@H](Cc3ccc(F)cc3)[C@@H](OCC3CC3)[C@H](C)OC2=O)c1OCOC(C)=O [Compound F96] | 80 to 100% | 80 to 100% | 80 to 100% | 80 to 100% | 80 to 100% | 80 to 100% | 80 to 100% | 80 to 100% |  | 80 to 100% | B (More than 0-Less than 80) |
| COc1ccnc(C(=O)N[C@H]2CCC[C@H](Cc3ccc(F)cc3F)[C@@H](OC(=O)c3ccco3)[C@H](C)OC2=O)c1OCOC(=O)C(C)C [Compound F157] |  | 80 to 100% |  |  | 80 to 100% |  | 80 to 100% |  | 0 to 80% | 80 to 100% |  |
| COc1ccnc(C(=O)N[C@H]2CCC[C@H](CCF)[C@@H](OCC(C)C)[C@H](C)OC2=O)c1OCOC(C)=O [Compound F128, ((2-(((3S,7R,8R,9S)-7-(2-fluoroethyl)-8-isobutoxy-9-methyl-2-oxooxonan-3-yl)carbamoyl)-4-methoxypyridin-3-yl)oxy)methyl acetate] | 80 to 100% | 80 to 100% | 80 to 100% | 80 to 100% | 80 to 100% | 80 to 100% | 80 to 100% | 80 to 100% | 80 to 100% | 80 to 100% |  |
| COc1ccnc(C(=O)N[C@H]2CCC[C@H](CCBr)[C@@H](Oc3ccccc3)[C@H](C)OC2=O)c1OC(C)=O [Compound F80] | 80 to 100% | 80 to 100% | 80 to 100% | 80 to 100% | 0 to 80% | 80 to 100% | 80 to 100% | 80 to 100% | 80 to 100% | 0 to 80% |  |
| CCCO[C@@H]1[C@@H](Cc2ccccc2)CCC[C@H](NC(=O)c2nccc(OC)c2OCOC(=O)COCC)C(=O)O[C@H]1C [Compound F174] | 80 to 100% | 80 to 100% | 80 to 100% | 80 to 100% | 80 to 100% | 80 to 100% | 80 to 100% | 80 to 100% | 80 to 100% | 80 to 100% |  |
| COc1ccnc(C(=O)N[C@H]2CCC[C@H](Cc3ccccc3)[C@@H](OCC3CC3)[C@H](C)OC2=O)c1OCOC(=O)C(C)C [Compound F152] | 80 to 100% | 80 to 100% | 80 to 100% | 80 to 100% | 0 to 80% | 80 to 100% | 80 to 100% | 80 to 100% | 80 to 100% | 80 to 100% |  |
| CC[C@H]1CCC[C@H](NC(=O)c2nccc(OC)c2OC(C)=O)C(=O)O[C@@H](C)[C@@H]1Oc1ccccc1 [Compound F81] | 80 to 100% | 80 to 100% | 80 to 100% | 80 to 100% | 80 to 100% | 80 to 100% | 80 to 100% | 80 to 100% | 80 to 100% | 0 to 80% |  |
| CCOCC(=O)OCOc1c(OC)ccnc1C(=O)N[C@H]1CCC[C@H](CCOC)[C@@H](Oc2ccccc2)[C@H](C)OC1=O [Compound F183] | 80 to 100% | 80 to 100% | 80 to 100% | 80 to 100% | 80 to 100% | 80 to 100% | 80 to 100% | 80 to 100% | 80 to 100% | 0 to 80% |  |
| CCCO[C@@H]1[C@@H](CCC(C)C)CCC[C@H](NC(=O)c2nccc(OC)c2OCOC(C)=O)C(=O)O[C@H]1C [Compound F92] | 80 to 100% | 80 to 100% | 80 to 100% | 80 to 100% | 80 to 100% | 80 to 100% | 80 to 100% | 80 to 100% | 80 to 100% | 80 to 100% |  |
| CCCO[C@@H]1[C@@H](Cc2ccc(F)cc2)CCC[C@H](NC(=O)c2nccc(OC)c2OCOC(=O)COCC)C(=O)O[C@H]1C [Compound F167] | 80 to 100% | 80 to 100% | 80 to 100% | 80 to 100% | 80 to 100% | 80 to 100% | 80 to 100% | 80 to 100% | 80 to 100% | 80 to 100% |  |
| CCOCC(=O)OCOc1c(OC)ccnc1C(=O)N[C@H]1CCC[C@H](CCF)[C@@H](OCC(C)C)[C@H](C)OC1=O [Compound F181] | 80 to 100% | 80 to 100% | 80 to 100% | 80 to 100% | 0 to 80% | 80 to 100% | 80 to 100% | 80 to 100% | 80 to 100% | 80 to 100% |  |

From patent publication US9265253B2, “Use of macrocyclic picolinamides as fungicides” (DOW AGROSCIENCES LLC, priority 2013, dated 2016)
